{
  "source": "patent US8008283B2",
  "about": "“Methods and compositions for the treatment of neuropsychiatric disorders” (Neurotherapeutics Pharma, Inc., priority 2005, dated 2011)",
  "test_system": "rat hippocampal slices",
  "experiment": "stimulation evoked after discharge activity in rat hippocampal slices (Example 68)",
  "type": "cell-based",
  "procedure": "Sprague-Dawley rats (males and females; 25-35 days old) were decapitated, the top of the skull was rapidly removed, and the brain chilled with ice-cold oxygenated slicing medium. […] A hemisphere of brain containing hippocampus was blocked and glued (cyanoacrylic adhesive) to the stage of a Vibroslicer (Frederick Haer, Brunsick, Me.). […] In the recording chamber, the slices were perfused with oxygenated recording medium at 34-35° C. All animal procedures were conducted in accordance with NIH and University of Washington animal care guidelines. In most slice experiments, simultaneous extracellular field electrode recordings were obtained from CA1 and CA3 areas. A bipolar tungsten stimulating electrode was placed on the Schaffer collaterals to evoke synaptically-driven field responses in CA1. Stimuli consisted of 100-300 μsec duration pulses at an intensity of four times the population-spike threshold. After discharges were evoked by a 2 second train of such stimuli delivered at 60 Hz.",
  "key": {"[1]": {"conditions": "2.5 mM furosemide, after 20 minutes of perfusion"}},
  "data": [
    {"smiles": "NS(=O)(=O)c1cc(C(=O)O)c(NCc2ccco2)cc1Cl", "note": "[furosemide]", "values": [
      {"measurement": "CA1 field response to single test pulse", "setting": "[1]", "value": "hyper-excitable field response"},
      {"measurement": "stimulation-evoked optical changes", "setting": "[1]", "value": "blocked"},
      {"measurement": "electrical after discharge activity", "setting": "2.5 mM furosemide, after 20 minutes of perfusion, Schaffer collateral stimulation 60 Hz 2 s, CA1", "value": "blocked"},
      {"measurement": "recovery after washout", "setting": "after 45 minutes of perfusion with normal bathing medium", "value": "restoration of initial response patterns"},
      {"measurement": "minimum concentration required to block both the after discharges and optical changes", "setting": "dose-dependency experiments", "value": 1.25, "unit": "mM"}
    ]}
  ]
}
